According to patent publication US12203125B2, “Device for determining antimicrobial susceptibility of a microorganism” (Q-linea AB, priority 2015, dated 2025):
≈ marks a conversion by molar mass, not a printed value.

What was measured:
Type in all cases: cell-based
[1] = test system: clinical isolate QM171; test: Reference MIC, broth micro-dilution (ISO 20776, turbidity after 16-20 hours); settings: isolate QM171, broth micro-dilution from 0.5 McFarland, 16-20 hours growth
Procedure: (§1) Microphotographs from the different wells were analysed to generate a numerical value of the biomass in the well and this was used as a marker of growth. From the growth a minimal inhibitory concentration was determined and compared to MIC obtained using a reference method, broth micro-dilution. […] A sample was determined to Pass (P) if within +/−1 two-fold dilution from the reference MIC.

[2] = test system: clinical isolate QM006; test: as above; settings: isolate QM006, broth micro-dilution from 0.5 McFarland, 16-20 hours growth
[3] = test system: clinical isolate QM171; test: Rapid AST: MIC calculated from microphotographs (biomass imaging, 0 to 4 hours) of isolate recovered from blood culture flask below 0.5 McFarland
Procedure: (§2) Dilutions of two different bacterial clinical isolates were seeded into an aerobic blood culture flask (Bactec, Becton Dickinson) at an estimated concentration of either 1 or 10 CFU/ml blood. Before seeding, the BCF had been filled with human blood from healthy donors. Aliquots from the dilution series were plated on agar and grown over night for viable count. Target concentration was 10 or 100 CFU seeded in 0.5 ml per BCF, corresponding to approximately 1 or 10 CFU/ml blood. The seeded BCF were allowed to incubate for 8 hours at 35° C. and a 5 ml aliquot were taken for subsequent AST. Another aliquot from the same BCF was used for determination of viable count after 8 hours' growth in the BCF.
(§3) A 5 ml aliquot of the cultured clinical isolate from the blood culture flask was filtered using a 100 μm filter to remove resin particles from the culture medium. The sample was thereafter mixed with a 10 ml of lysis buffer capable of selectively lysing any non-microbial cells present in the sample, and incubated for a sufficient amount of time for the non-microbial cells to be lysed. The resulting lysate was filtered through a 0.2 μm filter. Liquid components of the lysate (including components of the lysed non-microbial cells) passed through the filter, whereas microbial cells present in the sample were retained on the filter.
(§4) The retained microbial cells were re-suspended in liquid Mueller Hinton broth medium to form a microbial culture preparation, by back-flushing the filter with culture medium (i.e. flowing the culture medium in the opposite direction to filtration). 100 μl aliquots of the microbial culture preparation were then dispensed into wells of a microtiter plate.
(§5) The wells of the microtiter plate contained between 5 and 13 different concentrations of an antibiotic and different antibiotics. A negative control (i.e. comprising a blood sample with no seeded bacteria) and a positive control sample (i.e. an aliquot of the sample from a seeded BCF but into a well with no antimicrobial agent) were also set up at this stage.
(§6) Focus was performed on each inoculated well and each well was read at intervals of 1 hour. A total of 5 images were taken at time points from 0 to 4 hours after the initiation of the AST assay. The degree of microbial growth in each growth condition was monitored by imaging, by measuring the amount of microbial biomass in each well.
as §1

[4] = test system: clinical isolate QM006; test: as above
Procedure: as §2, §3, §4, §5, §6, §1

[5] = test system: gentamicin resistant E. coli strain; test: AST by imaging at different starting titers; settings: starting concentration 2×10^6 CFU/ml (Lane B) vs 3×10^5 CFU/ml (Lane A), four hours growth
Source text: E. coli grown in blood+BCF media were recovered via a clean-up procedure to remove blood components and only retain viable bacteria in MH-media. Adjustment of the recovered bacteria were made to ensure different titers are used at start of the AST. AST assays were set up to a starting concentration of 3×10^5 CFU/ml (Lane A) and 2×10^6 CFU/ml (Lane B) of a gentamicin resistant E. coli strain. Aliquots of the recovered bacteria were dispensed into a microtiter plate with freeze dried antibiotics at varying concentrations and allowed to grow for four hours before imaging. Shown are microphotographs from a series of different concentration of antibiotics in two-fold dilutions ranging from 64 mg/l to 0.0625 mg/l of gentamicin.

[6] = isolate QM171, experiment repeat no. 1, imaging after 4 h
[7] = isolate QM171, experiment repeat no. 2, imaging after 4 h
[8] = isolate QM171, experiment repeat no. 3, imaging after 4 h
[9] = isolate QM171, experiment repeat no. 4, imaging after 4 h
[10] = isolate QM171, experiment repeat no. 5, imaging after 4 h
[11] = isolate QM171, experiment repeat no. 6, imaging after 4 h
[12] = isolate QM171, experiment repeat no. 7, imaging after 4 h
[13] = isolate QM006, experiment repeat no. 1, imaging after 4 h
[14] = isolate QM006, experiment repeat no. 2, imaging after 4 h
[15] = isolate QM006, experiment repeat no. 3, imaging after 4 h
[16] = isolate QM006, experiment repeat no. 4, imaging after 4 h
[17] = isolate QM006, experiment repeat no. 5, imaging after 4 h
[18] = isolate QM006, experiment repeat no. 6, imaging after 4 h
[19] = isolate QM006, experiment repeat no. 7, imaging after 4 h
[20] = isolate QM006, experiment repeat no. 8, imaging after 4 h
[21] = isolate QM006, experiment repeat no. 9, imaging after 4 h

Compound	Reference MIC [1] [µg/mL]	Reference MIC [2] [µg/mL]	MIC calculated from microphotographs [3, 6] [µg/mL]	MIC calculated from microphotographs [3, 7] [µg/mL]	MIC calculated from microphotographs [3, 8] [µg/mL]	MIC calculated from microphotographs [3, 9] [µg/mL]	MIC calculated from microphotographs [3, 10] [µg/mL]	MIC calculated from microphotographs [3, 11] [µg/mL]	MIC calculated from microphotographs [3, 12] [µg/mL]	MIC calculated from microphotographs [4, 13] [µg/mL]	MIC calculated from microphotographs [4, 14] [µg/mL]	MIC calculated from microphotographs [4, 15] [µg/mL]	MIC calculated from microphotographs [4, 16] [µg/mL]	MIC calculated from microphotographs [4, 17] [µg/mL]	MIC calculated from microphotographs [4, 18] [µg/mL]	MIC calculated from microphotographs [4, 19] [µg/mL]	MIC calculated from microphotographs [4, 20] [µg/mL]	MIC calculated from microphotographs [4, 21] [µg/mL]	MIC value at higher bacterial titer compared with lower titer [5]
CO/N=C(\C(=O)N[C@@H]1C(=O)N2C(C(=O)O)=C(COC(C)=O)CS[C@H]12)c1csc(N)n1 [Cefotaxime]	> 8	> 8	8 (≈ 17.6 µM)	> 16	> 16	> 16	> 16	16 (≈ 35.1 µM)	16 (≈ 35.1 µM)	> 8	> 16	> 16	> 16	> 16	> 16	> 16	> 16	> 16	–
CC(C)(O/N=C(\C(=O)N[C@@H]1C(=O)N2C(C(=O)[O-])=C(C[n+]3ccccc3)CS[C@H]12)c1csc(N)n1)C(=O)O [Ceftazidime]	2	16	2 (≈ 3.66 µM)	2 (≈ 3.66 µM)	2 (≈ 3.66 µM)	2 (≈ 3.66 µM)	2 (≈ 3.66 µM)	2 (≈ 3.66 µM)	1 (≈ 1.83 µM)	8 (≈ 14.6 µM)	16 (≈ 29.3 µM)	8 (≈ 14.6 µM)	8 (≈ 14.6 µM)	8 (≈ 14.6 µM)	16 (≈ 29.3 µM)	8 (≈ 14.6 µM)	16 (≈ 29.3 µM)	8 (≈ 14.6 µM)	–
C[C@@H](O)[C@H]1C(=O)N2C(C(=O)O)=C(S[C@@H]3CN[C@H](C(=O)N(C)C)C3)[C@H](C)[C@H]12 [Meropenem]	1	≤ 0.5	≤ 0.5	≤ 0.5	≤ 0.5	≤ 0.5	≤ 0.5	≤ 0.5	≤ 0.5	≤ 0.5	≤ 0.5	≤ 0.5	1 (≈ 2.61 µM)	≤ 0.5	≤ 0.5	≤ 0.5	≤ 0.5	≤ 0.5	–
Gentamicin	≤ 0.5	> 16	0.5	0.5	0.5	0.5	0.5	0.5	0.25	16	16	16	16	16	16	16	16	16	higher MIC value
